Measured values: patent US20080118992A1, “Method For Measuring Molecular Interactions By Laser Light Scattering (Lls)” (UNIVERSITA DEGLI STUDI DI MILANO, priority 2004, published 2008)
Where a name gives a salt, the structure may show the parent alone.

Test system: peptide sequence L-Lys-D-Ala-D-Ala (Receptor)
Test: Determination of the binding constant by Laser Light Scattering (LLS) on receptor-coated polymer particles
Conditions: Langmuir fit
Description: […]
After each addition the mixture was stirred for 30 seconds and let balance for 1 minute, and the scattering light intensity was measured by using a 5 milliwatt He—Ne laser and a photomultiplier to convert the scattered light into an electric signal.
The light intensity was recorded for 10 seconds for consecutive six times thus selecting the lowest value in order to minimize the noise due to the possible presence of powder in the sample. […]

CN[C@H](CC(C)C)C(=O)N[C@H]1C(=O)N[C@@H](CC(N)=O)C(=O)N[C@H]2C(=O)N[C@H]3C(=O)N[C@H](C(=O)N[C@H](C(=O)O)c4cc(O)cc(O)c4-c4cc3ccc4O)[C@H](O)c3ccc(c(Cl)c3)Oc3cc2cc(c3O[C@@H]2O[C@H](CO)[C@@H](O)[C@H](O)[C@H]2O[C@H]2C[C@](C)(N)[C@H](O)[C@H](C)O2)Oc2ccc(cc2Cl)[C@H]1O [Vancomycin, Vancomycin hydrochloride hydrate]
binding constant (receptor-ligand) (Example 1: particles of average diameter 78 nm, TFE copolymer with 40% by moles perfluoromethylvinylether, 0.4 millimole Vancomycin solution): 1.5e+06 mol⁻¹ | binding constant (receptor-ligand) (Example 2: particles of average diameter 40 nm, TFE copolymer with 30% by moles TTD, 0.9 millimolar Vancomycin): 1.1e+06 mol⁻¹
